Experimental data published in ChEMBL document CHEMBL1201862, “PubChem BioAssay data set” (2004).
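Cells were grown in 96-well plates and exposed to each compound for 48 hours at five concentrations; endpoints were interpolated linearly between bracketing concentrations, or set to the highest concentration if not reached. GI50: concentration for 50% inhibition of growth.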 Activity calls are given as the source filed them. No stated cut-off is given here; in the data, active = GI50 up to about 1.1 µM and inactive = higher.

Tests used:
Test in all cases: DTP human tumour cell line panel, 48 h
IGROV-1 = test system: IGROV-1
OVCAR-5 = test system: OVCAR-5
Malme-3M = test system: Malme-3M
UACC-257 = test system: UACC-257
UACC-62 = test system: UACC-62
KM12 = test system: KM12
NCI/ADR-RES = test system: NCI/ADR-RES
CCRF-CEM = test system: CCRF-CEM
ACHN = test system: ACHN
EKVX = test system: EKVX
A549 = test system: A549
A498 = test system: A498
COLO 205 = test system: COLO 205
SF-268 = test system: SF-268
MCF7 = test system: MCF7
OVCAR-8 = test system: OVCAR-8
SK-OV-3 = test system: SK-OV-3
NCI-H226 = test system: NCI-H226
NCI-H23 = test system: NCI-H23
OVCAR-4 = test system: OVCAR-4

Measured: GI50

CCOC(=O)c1c(SCc2cc(=O)[nH]c(=O)[nH]2)n(-c2ccccc2)c(=S)n(-c2ccccc2)c1=O
inactive: IGROV-1 > 100 µM | OVCAR-5 > 100 µM | Malme-3M > 100 µM | UACC-257 > 100 µM | UACC-62 > 100 µM | KM12 > 100 µM | NCI/ADR-RES > 100 µM | CCRF-CEM > 100 µM | ACHN > 100 µM | EKVX > 100 µM | A549 > 100 µM | A498 > 100 µM | COLO 205 > 100 µM | SF-268 > 100 µM | MCF7 > 100 µM | OVCAR-8 > 100 µM | SK-OV-3 > 10 µM

Cc1cc(C)c2cc(N)c(Cl)nc2n1
inactive: IGROV-1 > 100 µM | NCI-H226 > 100 µM | OVCAR-5 > 100 µM | Malme-3M > 100 µM | UACC-257 > 100 µM | UACC-62 > 100 µM | KM12 > 100 µM | NCI/ADR-RES > 100 µM | CCRF-CEM > 100 µM | ACHN > 100 µM | EKVX > 100 µM | A549 > 100 µM | COLO 205 > 100 µM | SF-268 > 100 µM | MCF7 > 100 µM | OVCAR-8 > 100 µM | SK-OV-3 > 100 µM | NCI-H23 > 100 µM

COC1CC(OC2C(C)OC(OC3C(C)OC(OC4C(C)OC(O[C@H]5CC[C@@]6(C)C(=CC[C@]7(O)[C@@H]6C[C@@H](OC(=O)/C=C/c6ccccc6)[C@@]6(C)[C@]7(O)CC[C@@]6(O)C(C)=O)C5)CC4OC)CC3OC)CC2OC)OC(C)C1O (stereo partly specified)
inactive: IGROV-1 > 12.5 µM | NCI-H226 > 12.5 µM | OVCAR-5 > 12.5 µM | Malme-3M > 12.5 µM | UACC-257 > 12.5 µM | UACC-62 > 12.5 µM | KM12 10.1 µM | NCI/ADR-RES > 12.5 µM | OVCAR-4 > 12.5 µM | CCRF-CEM > 12.5 µM | ACHN > 12.5 µM | EKVX > 12.5 µM | A549 > 12.5 µM | COLO 205 > 12.5 µM | SF-268 > 12.5 µM | MCF7 > 12.5 µM | OVCAR-8 > 12.5 µM | SK-OV-3 > 12.5 µM | NCI-H23 > 12.5 µM

CCOC(=O)c1csc(NC(=O)CCN2CCOCC2)n1
inactive: IGROV-1 41 µM | OVCAR-5 > 100 µM | Malme-3M 19.3 µM | UACC-257 92.9 µM | UACC-62 > 100 µM | NCI/ADR-RES 48.5 µM | OVCAR-4 > 100 µM | CCRF-CEM 29.6 µM | ACHN 44.5 µM | EKVX 77.3 µM | A549 > 100 µM | A498 > 100 µM | COLO 205 52.7 µM | MCF7 43.8 µM | OVCAR-8 29.8 µM | SK-OV-3 > 100 µM | NCI-H23 > 100 µM

C/C=C/C(O)P1(=O)N(Cc2ccccc2)[C@@H]2CCCC[C@H]2N1Cc1ccccc1 (stereo partly specified)
inactive: IGROV-1 > 25 µM | NCI-H226 > 25 µM | OVCAR-5 > 25 µM | Malme-3M > 25 µM | UACC-257 > 25 µM | UACC-62 > 25 µM | KM12 > 25 µM | NCI/ADR-RES > 25 µM | OVCAR-4 > 25 µM | CCRF-CEM > 25 µM | ACHN > 25 µM | EKVX > 25 µM | A549 > 25 µM | COLO 205 > 25 µM | SF-268 > 25 µM | MCF7 > 25 µM | OVCAR-8 > 25 µM | SK-OV-3 > 25 µM | NCI-H23 > 25 µM

CC(=O)O[C@H]1CCn2c3c(c(C)c21)C(=O)C(N1CC1)=C(C)C3=O
inactive: IGROV-1 > 10 µM | NCI-H226 > 10 µM | OVCAR-5 > 10 µM | Malme-3M > 10 µM | UACC-257 > 10 µM | UACC-62 9.04 µM | KM12 > 10 µM | NCI/ADR-RES > 10 µM | OVCAR-4 > 10 µM | CCRF-CEM > 10 µM | ACHN > 10 µM | EKVX > 10 µM | A549 3.19 µM | COLO 205 6.12 µM | SF-268 > 10 µM | MCF7 5.51 µM | OVCAR-8 > 10 µM | SK-OV-3 > 10 µM | NCI-H23 1.68 µM

c1ccc(N2N=C3N(c4ccccc4)C2N3c2ccccc2)cc1
inactive: IGROV-1 31.4 µM | OVCAR-5 71.9 µM | Malme-3M 17.5 µM | UACC-257 23.1 µM | UACC-62 25.6 µM | KM12 33.7 µM | NCI/ADR-RES > 100 µM | OVCAR-4 35.6 µM | CCRF-CEM 20.7 µM | ACHN 40.5 µM | EKVX > 100 µM | A549 47.3 µM | A498 33.1 µM | COLO 205 19.5 µM | SF-268 52.8 µM | MCF7 31.9 µM | OVCAR-8 35.9 µM | SK-OV-3 > 100 µM | NCI-H23 37.9 µM

NS(=O)(=O)c1nnc(NC(=O)N(c2ccccc2)c2ccccc2)s1
inactive: IGROV-1 17.7 µM | NCI-H226 41.5 µM | OVCAR-5 24.8 µM | Malme-3M 21.2 µM | UACC-257 36.1 µM | UACC-62 21.9 µM | KM12 21.6 µM | NCI/ADR-RES 18.2 µM | OVCAR-4 27.9 µM | CCRF-CEM 20.1 µM | EKVX 24.8 µM | A549 26.3 µM | COLO 205 37.9 µM | SF-268 30.3 µM | MCF7 38.1 µM | OVCAR-8 19.9 µM | SK-OV-3 59.6 µM | NCI-H23 19.1 µM

NC(=O)c1cnc2sc3ccccc3n2c1=O
inactive: IGROV-1 > 100 µM | NCI-H226 34.5 µM | OVCAR-5 > 100 µM | Malme-3M > 100 µM | UACC-257 > 100 µM | UACC-62 > 100 µM | KM12 > 100 µM | NCI/ADR-RES > 100 µM | OVCAR-4 > 100 µM | CCRF-CEM > 100 µM | ACHN > 100 µM | EKVX 21.9 µM | A549 67.9 µM | COLO 205 > 100 µM | SF-268 > 100 µM | MCF7 > 100 µM | OVCAR-8 > 100 µM | SK-OV-3 > 100 µM

C[N+](C)(C)c1ncnc2c1ncn2C1CCCCO1 (stereo unspecified)
inactive: IGROV-1 > 100 µM | OVCAR-5 > 100 µM | Malme-3M > 100 µM | UACC-257 > 100 µM | UACC-62 > 100 µM | KM12 > 100 µM | NCI/ADR-RES > 100 µM | OVCAR-4 > 100 µM | CCRF-CEM > 100 µM | ACHN > 100 µM | EKVX > 100 µM | A549 > 100 µM | A498 > 100 µM | COLO 205 > 100 µM | SF-268 > 100 µM | MCF7 > 100 µM | OVCAR-8 > 100 µM | SK-OV-3 > 100 µM | NCI-H23 > 100 µM

CC(C)(C)[Si](C)(C)OCCCCC1CC2(S(=O)(=O)C3=CC=C=C=C3)ON1CC2S(=O)(=O)c1ccccc1 (stereo unspecified)
inactive: IGROV-1 > 100 µM | NCI-H226 > 100 µM | OVCAR-5 > 100 µM | UACC-257 84.9 µM | UACC-62 > 100 µM | KM12 > 100 µM | NCI/ADR-RES > 100 µM | OVCAR-4 > 100 µM | ACHN > 100 µM | EKVX > 100 µM | A549 > 100 µM | A498 > 100 µM | COLO 205 > 100 µM | SF-268 > 100 µM | MCF7 > 100 µM | OVCAR-8 > 100 µM | SK-OV-3 > 100 µM | NCI-H23 > 100 µM
